According to patent US20250003940A1, “BIOSENSOR, BIOSENSOR COMPONENTS, AND USE THEREOF” (VICTORIA LINK LIMITED, priority 2021, published 2025):
Where two headings read alike, the source gives them in different places.

How the values were obtained:
[1] = target: T1, Helicobacter pylori glutamine synthetase (HpGS), SEQ ID NO: 2 (Helicobacter pylori, UniProt P94845); experiment: GS-BpsA coupled assay kinetics of HpGS for glutamate and ammonium (A590, indigoidine); assay type: biochemical; details: 37° C., coupled with BpsA
T1 construct: BpsA-coupled assay
T1 sequence (P94845 1-481): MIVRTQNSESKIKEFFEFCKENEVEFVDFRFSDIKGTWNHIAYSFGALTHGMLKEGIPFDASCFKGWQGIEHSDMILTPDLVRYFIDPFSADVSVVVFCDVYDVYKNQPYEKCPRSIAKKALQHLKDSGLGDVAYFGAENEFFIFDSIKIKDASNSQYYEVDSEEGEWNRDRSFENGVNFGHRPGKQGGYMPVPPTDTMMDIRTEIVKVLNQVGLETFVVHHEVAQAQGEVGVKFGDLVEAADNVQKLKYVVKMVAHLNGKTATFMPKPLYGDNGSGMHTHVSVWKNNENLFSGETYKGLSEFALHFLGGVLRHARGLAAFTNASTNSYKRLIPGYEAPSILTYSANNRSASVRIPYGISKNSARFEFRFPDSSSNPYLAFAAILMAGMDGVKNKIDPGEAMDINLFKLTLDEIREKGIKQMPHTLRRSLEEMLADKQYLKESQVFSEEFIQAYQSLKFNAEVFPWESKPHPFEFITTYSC
Method: (§1) FIG. 6A: Sigmoidal kinetics data obtained when the GS from Helicobacter pylori (HpGS) is assayed in the presence of various concentrations of its substrate, glutamate. The concentration of GS and BpsA is 3 μM and 6 μM respectively. An optimised condition for the GS-BpsA assay was used. A range of glutamate concentrations (0-900 μM) was used in the assay. Rates were measured through the increase in absorbance at 590 nm at 37° C. Data are the mean values of three replicates and error bars indicate the standard error of the mean.
as §1, with “6B:” for “6A:”, “HpGS” for “the GS from Helicobacter pylori (HpGS)”, “ammonium.” for “glutamate.”, “0-900 μM NH4Cl” for “glutamate concentrations (0-900 μM)”
(§2) FIG. 21A: Amino acid sequence for Helicobacter pylori glutamine synthetase enzyme. SEQ ID NO: 2. The His-tag sequence used for the protein fusion is also shown.
(§3) Optimised ATP/pH and Mg^2+ conditions were utilised with varying concentrations of KCl (FIG. 5). A concentration of 10 mM KCl was chosen to be optimal based on this experiment. The final optimised reaction mixture for the GS-BpsA assay was determined to be 100 mM Tris Base pH 11.4, 15 mM ATP, 20 mM MgCl2, and 10 mM KCl.
(§4) Using optimised assay conditions for the GS-BpsA coupled assay, kinetics data for HpGS were collected for its substrates glutamate and ammonium. For these experiments, the concentrations of GS and BpsA were 3 μM and 6 μM respectively. Optimised conditions for the GS-BpsA assay were used. A range of 0-1000 μM glutamate concentration and 1000 μM NH4Cl was used in the assay. Rates were measured through the increase in absorbance for 5 minutes at 590 nm and 37° C.
(§5) GS enzymes have been previously found to display non-Michaelis-Menten, sigmoidal kinetics (Murray et al., 2013). As expected, the data were fit better by the Hill equation for cooperative enzymes than by the Michaelis-Menten equation (FIGS. 6A-6B). The Hill coefficient indicates the estimate of the number of active sites that are acting cooperatively, which has a value of approximately 2 for both substrates.

[2] = GS activity assay coupled with PK/LDH (NADH oxidation, A340); assay type: biochemical; details: 37° C., decrease of absorbance at 340 nm
Method: (§6) FIG. 3: GS activity assay. The assay was adapted from Shapiro et. al. The reaction mixture included 30 mM imidazole, 100 mM Na-glutamate, 8.5 mM adenosine 5′-triphosphate (ATP), 1 mM phosphoenolpyruvate (PEP), 60 mM magnesium chloride (MgCl2), 20 mM potassium chloride (KCl), 45 mM ammonium chloride (NH4Cl), 0.25 mM (3-nicotinamide adenine dinucleotide (NADH), 28 units pyruvate kinase/40 units L-lactic dehydrogenase (PK/LDH). The reactions were performed at 37° C. and rates were measured by the decrease of absorbance at 340 nm.
For preliminary experiments, glutamine synthetase from Escherichia coli (E. coli) was successfully expressed, purified and tested for activity. This assay took advantage of the biosynthetic reaction of GS (which produces ADP) coupled with lactate dehydrogenase and pyruvate kinase to oxidise NADH (Shapiro & Stadtman, 1970).
as §6, with “The” for “FIG. 3: GS activity assay. The assay was adapted from Shapiro et. al. The”, “0-nicotinamide” for “(3-nicotinamide”
The soluble GS enzymes were tested. […]

[3] = Activity assay of purified arginine deiminase; assay type: biochemical
Method: We attempted to express and purify the three ADI enzymes in E. coli. After numerous attempts, we were unable to express the M. hominis or P. putida enzymes in a soluble form. Each protein was expressed solely in inclusion bodies, under all conditions tested (FIG. 14A). Purification from inclusion bodies and refolding were also attempted, without success. In contrast, we were able to express and purify the P. aeruginosa ADI enzyme (average yield=40 mg per litre of bacterial culture).

[4] = substrate: N=C(N)NCCC[C@H](N)C(=O)O; experiment: Michaelis-Menten kinetics of RcArgZ with arginine (glutamate dehydrogenase coupled assay, A340); assay type: biochemical, Rhodospirillum centenum; details: other: 37° C., 0-3000 μM arginine, decrease in absorbance at 340 nm
Method: FIG. 17: Michaelis-Menten kinetics of RcArgZ with arginine. A range of 0-3000 μM arginine concentration was used in the assay. Rates were measured through the decrease in absorbance at 340 nm at 37° C. Data are the mean values of three replicates and error bars indicate the standard error of the mean.
FIG. 22A: Amino acid sequence for Rhodospirillum centenum arginine dihydrolase enzyme. SEQ ID NO: 3. This sequence is derived from the sequence listed as accession number B6IRA8 in the UniProt database, but with the deletion of amino acid residues 2 to 18 from the UniProt sequence. These residues were deleted because they were predicted to encode a disordered region in the polypeptide. The His-tag sequence used for the protein fusion is also shown.
For this reason, we ordered the gene for this isolated domain from a commercial gene synthesis company (Twist Bioscience). […]
RcArgZ activity was quantified in vitro by coupling it with glutamate dehydrogenase (GDH) in a spectrophotometric assay. […]
Therefore, a decrease in absorbance at 340 nm is directly relative to glutamate production, and because GDH is in excess in the reaction, it is directly relative to RcArgZ activity to produce ammonium from arginine.
Activity data for RcArgZ were collected across a range of arginine concentrations. […] Rates were measured through the decrease in absorbance at 340 nm at 37° C.

[5] = substrate: N[C@@H](CCC(=O)O)C(=O)O; experiment: GS-BpsA coupled assay kinetics of HpGS for glutamate and ammonium (A590, indigoidine); assay type: biochemical, Helicobacter pylori; details: coupled with BpsA, pH 11.4; for K0.5: Hill equation
Method: as §1
as §1, with “6B:” for “6A:”, “HpGS” for “the GS from Helicobacter pylori (HpGS)”, “ammonium.” for “glutamate.”, “0-900 μM NH4Cl” for “glutamate concentrations (0-900 μM)”
as §2, §3, §4, §5

[6] = other: Biological Replicate 1, 37° C.
[7] = other: Biological Replicate 2, 37° C.

## N [Ammonium, ammonium]
[1]
  kcat (estimated from Vmax): 0.8 ± 0.03 s⁻¹
[1]; Hill equation
  Hill coefficient: 2.0
[1]; read-out: Khalf (concentration of the substrate at the half-maximal velocity)
  Km: ~100 µM
[1]; Biological Replicate 1
  kcat (ammonium varied): 0.78 s⁻¹
[1]; Biological Replicate 1, Hill equation, read-out: Khalf (ammonium)
  Km: 96 µM
[1]; Biological Replicate 2
  kcat (ammonium varied): 0.78 s⁻¹
[1]; Biological Replicate 2, Hill equation, read-out: Khalf (ammonium)
  Km: 97 µM

## EcGS: glutamine synthetase from Escherichia coli, SEQ ID NO: 14
[2]
  GS activity (ATP hydrolysis) in PK/LDH assay: only slightly active

## P. aeruginosa ADI: Pseudomonas aeruginosa arginine deiminase enzyme expressed and purified from E. coli
[3]
  activity of purified arginine deiminase: did not have any activity

B1: Rhodospirillum centenum arginine dihydrolase (RcArgZ), truncated: deletion of residues 2 to 18 of UniProt B6IRA8, SEQ ID NO: 3 (Rhodospirillum centenum SW) (protein)
chain: APPRIIMCAPDHFEVSYTINPWMRPDEWEARRSELSGAAAAGWSALRRRLQQLGAAVELVAPRSGLPDLVFTANAAVVLDGKALVARFRHPERRPEEPHFRRFFDGLAARGLLDEVHDMPPGVCLEGAGDCVHDAGRGVFFLGHGFRSDREAAAVVADLFGEEVEPLELVDPRFYHMDTALCPLSGGEVLYVPGAFSAEGRGRLRERIGADRLIEVPEADAVRLAANAVNLGRDVVLAEASDDLKAALAERGYSVHEVPIRSFGLSGGSAFCLTLRLDRRSNRRSGRPVGGTGPGAAADAPGQPALLD
notes: synthetic gene (Twist Bioscience); GDH-coupled assay
[4]
  Km: 360 ± 30 µM
  kcat: 10.4 s⁻¹

B2: Helicobacter pylori glutamine synthetase (HpGS), SEQ ID NO: 2 (Helicobacter pylori 26695) (protein)
chain: MIVRTQNSESKIKEFFEFCKENEVEFVDFRFSDIKGTWNHIAYSFGALTHGMLKEGIPFDASCFKGWQGIEHSDMILTPDLVRYFIDPFSADVSVVVFCDVYDVYKNQPYEKCPRSIAKKALQHLKDSGLGDVAYFGAENEFFIFDSIKIKDASNSQYYEVDSEEGEWNRDRSFENGVNFGHRPGKQGGYMPVPPTDTMMDIRTEIVKVLNQVGLETFVVHHEVAQAQGEVGVKFGDLVEAADNVQKLKYVVKMVAHLNGKTATFMPKPLYGDNGSGMHTHVSVWKNNENLFSGETYKGLSEFALHFLGGVLRHARGLAAFTNASTNSYKRLIPGYEAPSILTYSANNRSASVRIPYGISKNSARFEFRFPDSSSNPYLAFAAILMAGMDGVKNKIDPGEAMDINLFKLTLDEIREKGIKQMPHTLRRSLEEMLADKQYLKESQVFSEEFIQAYQSLKFNAEVFPWESKPHPFEFITTYSC
notes: BpsA-coupled assay
[5]; [6]
  K0.5: 350 µM
  kcat: 0.28 s⁻¹
[5]; [7]
  K0.5: 350 µM
  kcat: 0.45 s⁻¹
